Test results published in ChEMBL document CHEMBL5058649, “Data for DCP probe BAY 1816032” (2022).

Assays:
[1] = target: Serine/threonine-protein kinase RIO2 (Homo sapiens) (UniProt Q9BVS4); assay: RIOK2 DiscoveRx kinase panel; details: Compound concentration 1.0 uM
[2] = target: Phosphatidylinositol 4,5-bisphosphate 3-kinase catalytic subunit beta isoform (Homo sapiens) (UniProt P42338); assay: PIK3CB DiscoveRx kinase panel; details: Compound concentration 1.0 uM
[3] = target: Tyrosine-protein kinase receptor Tie-1 (Homo sapiens) (UniProt P35590); assay: TIE1 DiscoveRx kinase panel; details: Compound concentration 1.0 uM
Tyrosine-protein kinase receptor Tie-1 (Homo sapiens), sequence (P35590 whole entry): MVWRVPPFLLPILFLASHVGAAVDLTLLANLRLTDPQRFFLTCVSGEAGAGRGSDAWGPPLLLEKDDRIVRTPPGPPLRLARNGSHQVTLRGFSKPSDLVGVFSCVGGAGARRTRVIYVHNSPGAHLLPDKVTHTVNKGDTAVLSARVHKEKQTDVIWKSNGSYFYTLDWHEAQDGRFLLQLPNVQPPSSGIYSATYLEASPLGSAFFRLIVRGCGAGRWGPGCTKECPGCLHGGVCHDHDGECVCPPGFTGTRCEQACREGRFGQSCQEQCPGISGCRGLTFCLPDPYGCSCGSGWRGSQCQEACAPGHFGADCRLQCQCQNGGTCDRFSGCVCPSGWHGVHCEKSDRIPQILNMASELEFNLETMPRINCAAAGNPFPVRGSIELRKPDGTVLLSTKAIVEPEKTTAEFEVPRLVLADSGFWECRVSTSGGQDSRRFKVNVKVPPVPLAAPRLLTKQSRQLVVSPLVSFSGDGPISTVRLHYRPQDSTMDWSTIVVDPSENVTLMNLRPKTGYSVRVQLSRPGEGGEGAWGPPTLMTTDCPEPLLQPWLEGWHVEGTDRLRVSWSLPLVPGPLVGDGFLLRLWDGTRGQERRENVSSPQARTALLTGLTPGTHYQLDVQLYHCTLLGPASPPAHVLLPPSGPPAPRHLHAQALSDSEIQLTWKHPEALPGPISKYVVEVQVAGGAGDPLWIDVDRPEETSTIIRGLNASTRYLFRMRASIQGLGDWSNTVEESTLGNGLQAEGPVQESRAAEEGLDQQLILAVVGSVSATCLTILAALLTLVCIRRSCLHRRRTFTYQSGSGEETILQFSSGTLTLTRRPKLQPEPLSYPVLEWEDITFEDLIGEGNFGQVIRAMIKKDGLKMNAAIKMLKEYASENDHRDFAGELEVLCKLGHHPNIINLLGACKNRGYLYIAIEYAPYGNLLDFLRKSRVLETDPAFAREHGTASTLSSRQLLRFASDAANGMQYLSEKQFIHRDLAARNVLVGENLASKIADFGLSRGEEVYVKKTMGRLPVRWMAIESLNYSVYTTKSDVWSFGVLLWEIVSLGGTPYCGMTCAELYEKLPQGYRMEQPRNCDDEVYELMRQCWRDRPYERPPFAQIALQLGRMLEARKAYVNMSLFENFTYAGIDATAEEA

[4] = target: Calcium/calmodulin-dependent protein kinase type 1D (Homo sapiens) (UniProt Q8IU85); assay: CAMK1D DiscoveRx kinase panel; details: Compound concentration 1.0 uM
[5] = target: Tyrosine-protein kinase ZAP-70 (Homo sapiens) (UniProt P43403); assay: ZAP70 DiscoveRx kinase panel; details: Compound concentration 1.0 uM
[6] = target: BDNF/NT-3 growth factors receptor (Homo sapiens) (UniProt Q16620); assay: TRKB DiscoveRx kinase panel; details: Compound concentration 1.0 uM
[7] = target: Tyrosine-protein kinase Yes (Homo sapiens) (UniProt P07947); assay: YES DiscoveRx kinase panel; details: Compound concentration 1.0 uM
[8] = target: Serine/threonine-protein kinase Nek9 (Homo sapiens) (UniProt Q8TD19); assay: NEK9 DiscoveRx kinase panel; details: Compound concentration 1.0 uM
[9] = target: Phosphatidylinositol 4,5-bisphosphate 3-kinase catalytic subunit delta isoform (Homo sapiens) (UniProt O00329); assay: PIK3CD DiscoveRx kinase panel; details: Compound concentration 1.0 uM
[10] = target: Glutamate receptor ionotropic, kainate (Rattus norvegicus) (UniProt P22756+Q01812+P42260+P42264+Q63273); assay: Inhibition of Glutamate, Kainate at 10 µM in the Eurofins-Panlabs radioligand binding assay (Eurofins_assay_232700); details: Compound concentration 10.0 uM
[11] = target: Casein kinase I isoform gamma-2 (Homo sapiens) (UniProt P78368); assay: CSNK1G2 DiscoveRx kinase panel; details: Compound concentration 1.0 uM
Casein kinase I isoform gamma-2 (Homo sapiens), sequence (P78368 whole entry, looked up, the tested form may be a part, canonical isoform): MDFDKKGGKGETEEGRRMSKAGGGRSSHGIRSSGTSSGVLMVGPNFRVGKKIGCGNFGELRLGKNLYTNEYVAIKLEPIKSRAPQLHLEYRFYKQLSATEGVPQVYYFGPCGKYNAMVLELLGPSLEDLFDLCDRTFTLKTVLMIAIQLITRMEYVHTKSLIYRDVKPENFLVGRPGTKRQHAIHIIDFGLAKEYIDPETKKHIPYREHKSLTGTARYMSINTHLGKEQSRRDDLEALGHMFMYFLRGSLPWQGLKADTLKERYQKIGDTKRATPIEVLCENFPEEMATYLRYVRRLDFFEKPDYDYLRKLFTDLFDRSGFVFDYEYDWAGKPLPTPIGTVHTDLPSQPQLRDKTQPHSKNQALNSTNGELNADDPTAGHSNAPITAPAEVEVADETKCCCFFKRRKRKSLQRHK

[12] = target: LIM domain kinase 1 (Homo sapiens) (UniProt P53667); assay: LIMK1 DiscoveRx kinase panel; details: Compound concentration 1.0 uM
[13] = target: Serine/threonine-protein kinase DCLK3 (Homo sapiens) (UniProt Q9C098); assay: DCAMKL3 DiscoveRx kinase panel; details: Compound concentration 1.0 uM
[14] = target: Serine/threonine-protein kinase N2 (Homo sapiens) (UniProt Q16513); assay: PKN2 DiscoveRx kinase panel; details: Compound concentration 1.0 uM
Serine/threonine-protein kinase N2 (Homo sapiens), sequence (Q16513 whole entry, looked up): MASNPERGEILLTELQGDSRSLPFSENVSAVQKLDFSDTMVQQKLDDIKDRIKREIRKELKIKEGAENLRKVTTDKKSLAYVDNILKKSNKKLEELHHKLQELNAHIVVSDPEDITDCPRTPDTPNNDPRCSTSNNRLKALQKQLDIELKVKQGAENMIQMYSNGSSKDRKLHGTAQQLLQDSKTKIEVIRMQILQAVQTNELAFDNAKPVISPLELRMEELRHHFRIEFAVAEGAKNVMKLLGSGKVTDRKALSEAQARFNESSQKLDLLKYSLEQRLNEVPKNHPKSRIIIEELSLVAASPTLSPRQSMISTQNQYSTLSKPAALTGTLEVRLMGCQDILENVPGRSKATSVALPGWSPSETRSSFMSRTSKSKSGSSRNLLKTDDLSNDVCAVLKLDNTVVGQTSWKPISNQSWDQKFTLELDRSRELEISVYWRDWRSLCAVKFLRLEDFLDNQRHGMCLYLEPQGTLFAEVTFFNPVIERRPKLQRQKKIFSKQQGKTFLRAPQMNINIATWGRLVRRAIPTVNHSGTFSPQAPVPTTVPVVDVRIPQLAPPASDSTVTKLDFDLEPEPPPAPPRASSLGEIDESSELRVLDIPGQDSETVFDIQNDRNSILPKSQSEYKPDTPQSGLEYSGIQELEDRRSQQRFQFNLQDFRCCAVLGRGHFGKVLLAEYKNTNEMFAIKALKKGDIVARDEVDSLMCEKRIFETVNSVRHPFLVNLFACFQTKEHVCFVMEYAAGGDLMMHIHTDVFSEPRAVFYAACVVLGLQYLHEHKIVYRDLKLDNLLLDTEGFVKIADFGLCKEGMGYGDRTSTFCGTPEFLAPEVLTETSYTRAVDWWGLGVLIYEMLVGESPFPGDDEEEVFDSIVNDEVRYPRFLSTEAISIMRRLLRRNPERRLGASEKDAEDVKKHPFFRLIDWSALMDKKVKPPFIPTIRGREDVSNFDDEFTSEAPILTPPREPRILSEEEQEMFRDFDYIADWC

[15] = target: Muscarinic acetylcholine receptor M5 (Homo sapiens) (UniProt P08912); details: Compound concentration 10.0 uM
[16] = target: Myotonin-protein kinase (Homo sapiens) (UniProt Q09013); assay: DMPK DiscoveRx kinase panel; details: Compound concentration 1.0 uM
[17] = target: Sigma non-opioid intracellular receptor 1 (Homo sapiens, UniProt Q99720); details: Compound concentration 10.0 uM
[18] = target: Mitogen-activated protein kinase 13 (Homo sapiens) (UniProt O15264); assay: p38-delta DiscoveRx kinase panel; details: Compound concentration 1.0 uM
[19] = target: Serine/threonine-protein kinase pim-1 (Homo sapiens) (UniProt P11309); assay: PIM1 DiscoveRx kinase panel; details: Compound concentration 1.0 uM
[20] = target: Mitogen-activated protein kinase kinase kinase 11 (Homo sapiens) (UniProt Q16584); assay: MLK3 DiscoveRx kinase panel; details: Compound concentration 1.0 uM
Mitogen-activated protein kinase kinase kinase 11 (Homo sapiens), sequence (Q16584 whole entry, looked up): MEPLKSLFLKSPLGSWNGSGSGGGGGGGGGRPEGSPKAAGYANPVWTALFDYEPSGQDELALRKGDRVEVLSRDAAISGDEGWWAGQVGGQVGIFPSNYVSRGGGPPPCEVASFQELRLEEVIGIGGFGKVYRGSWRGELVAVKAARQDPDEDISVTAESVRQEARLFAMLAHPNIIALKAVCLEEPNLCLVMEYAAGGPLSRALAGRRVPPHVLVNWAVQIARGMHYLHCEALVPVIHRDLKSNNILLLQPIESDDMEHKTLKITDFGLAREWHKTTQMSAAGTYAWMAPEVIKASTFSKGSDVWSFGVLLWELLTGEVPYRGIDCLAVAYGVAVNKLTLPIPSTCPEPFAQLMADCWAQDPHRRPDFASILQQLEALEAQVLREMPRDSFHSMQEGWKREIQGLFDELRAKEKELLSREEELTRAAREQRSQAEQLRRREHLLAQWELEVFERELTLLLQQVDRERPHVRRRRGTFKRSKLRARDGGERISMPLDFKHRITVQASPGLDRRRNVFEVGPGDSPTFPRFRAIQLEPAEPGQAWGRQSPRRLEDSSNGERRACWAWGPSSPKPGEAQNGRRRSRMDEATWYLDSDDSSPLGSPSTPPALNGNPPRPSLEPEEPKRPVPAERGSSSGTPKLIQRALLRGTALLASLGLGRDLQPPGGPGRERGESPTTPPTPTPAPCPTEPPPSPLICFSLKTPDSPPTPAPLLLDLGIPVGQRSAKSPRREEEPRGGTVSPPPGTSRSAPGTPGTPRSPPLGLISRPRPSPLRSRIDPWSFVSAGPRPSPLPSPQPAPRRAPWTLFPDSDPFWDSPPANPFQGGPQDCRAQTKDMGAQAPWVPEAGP

[21] = target: Cyclin-dependent kinase 16 (Homo sapiens) (UniProt Q00536); assay: PCTK1 DiscoveRx kinase panel; details: Compound concentration 1.0 uM
[22] = target: MAP kinase-interacting serine/threonine-protein kinase 2 (Homo sapiens) (UniProt Q9HBH9); assay: MKNK2 DiscoveRx kinase panel; details: Compound concentration 1.0 uM
MAP kinase-interacting serine/threonine-protein kinase 2 (Homo sapiens), sequence (Q9HBH9 whole entry, looked up): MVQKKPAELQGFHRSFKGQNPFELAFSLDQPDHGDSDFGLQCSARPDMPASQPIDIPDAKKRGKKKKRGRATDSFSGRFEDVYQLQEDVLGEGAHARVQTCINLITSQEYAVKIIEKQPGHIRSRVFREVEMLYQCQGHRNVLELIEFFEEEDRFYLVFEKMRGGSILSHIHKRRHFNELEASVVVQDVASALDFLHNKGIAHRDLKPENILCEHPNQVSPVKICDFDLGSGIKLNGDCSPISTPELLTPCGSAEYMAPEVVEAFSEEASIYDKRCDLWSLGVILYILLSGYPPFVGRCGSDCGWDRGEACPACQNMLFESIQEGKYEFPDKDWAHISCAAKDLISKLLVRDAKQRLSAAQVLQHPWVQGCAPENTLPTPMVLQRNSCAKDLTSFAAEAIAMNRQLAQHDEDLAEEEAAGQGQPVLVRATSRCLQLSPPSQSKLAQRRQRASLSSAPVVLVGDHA

[23] = target: ALK tyrosine kinase receptor (Homo sapiens) (UniProt Q9UM73); assay: ALK DiscoveRx kinase panel; details: Compound concentration 1.0 uM
[24] = target: Serine/threonine-protein kinase DCLK1 (Homo sapiens) (UniProt O15075); assay: DCAMKL1 DiscoveRx kinase panel; details: Compound concentration 1.0 uM
[25] = target: Cyclin-dependent kinase 18 (Homo sapiens) (UniProt Q07002); assay: PCTK3 DiscoveRx kinase panel; details: Compound concentration 1.0 uM
[26] = target: Inhibitor of nuclear factor kappa-B kinase subunit alpha (Homo sapiens) (UniProt O15111); assay: IKK-alpha DiscoveRx kinase panel; details: Compound concentration 1.0 uM
Rattus norvegicus = species on record: Rattus norvegicus; assay: Inhibition of Glycine, Strychnine-Sensitive at 10 µM in the Eurofins-Panlabs radioligand binding assay (Eurofins_assay_239000); details: Compound concentration 10.0 uM
[27] = target: cAMP-dependent protein kinase catalytic subunit beta (Homo sapiens) (UniProt P22694); assay: PKAC-beta DiscoveRx kinase panel; details: Compound concentration 1.0 uM
[28] = target: Ribosomal protein S6 kinase alpha-3 (Homo sapiens) (UniProt P51812); assay: RSK2(Kin.Dom.2-C-terminal) DiscoveRx kinase panel; details: Compound concentration 1.0 uM
[29] = target: Mitogen-activated protein kinase kinase kinase 20 (Homo sapiens) (UniProt Q9NYL2); assay: ZAK DiscoveRx kinase panel; details: Compound concentration 1.0 uM
[30] = target: Leukocyte tyrosine kinase receptor (Homo sapiens) (UniProt P29376); assay: LTK DiscoveRx kinase panel; details: Compound concentration 1.0 uM
[31] = target: MAP kinase-activated protein kinase 2 (Homo sapiens) (UniProt P49137); assay: MAPKAPK2 DiscoveRx kinase panel; details: Compound concentration 1.0 uM
[32] = target: Adenosine receptor A1 (Homo sapiens) (UniProt P30542); details: Compound concentration 10.0 uM
[33] = target: GABA-A receptor; anion channel (Rattus norvegicus) (UniProt O09028+P15431+P18506+P18508+P19969+P20236+P23574+P23576+P28471+P28473+P30191+P62813+P63079+P63138+Q91ZM7+Q9ES14); details: Compound concentration 10.0 uM
[34] = target: cGMP-dependent protein kinase 1 (Homo sapiens) (UniProt Q13976); assay: PRKG1 DiscoveRx kinase panel; details: Compound concentration 1.0 uM
[35] = target: Dual specificity tyrosine-phosphorylation-regulated kinase 1A (Homo sapiens) (UniProt Q13627); assay: DYRK1A DiscoveRx kinase panel; details: Compound concentration 1.0 uM
[36] = target: Beta-1 adrenergic receptor (Homo sapiens) (UniProt P08588); details: Compound concentration 10.0 uM
[37] = target: Serine/threonine-protein kinase RIO1 (Homo sapiens) (UniProt Q9BRS2); assay: RIOK1 DiscoveRx kinase panel; details: Compound concentration 1.0 uM
[38] = target: BMP-2-inducible protein kinase (Homo sapiens) (UniProt Q9NSY1); assay: BIKE DiscoveRx kinase panel; details: Compound concentration 1.0 uM
BMP-2-inducible protein kinase (Homo sapiens), sequence (Q9NSY1 whole entry, looked up): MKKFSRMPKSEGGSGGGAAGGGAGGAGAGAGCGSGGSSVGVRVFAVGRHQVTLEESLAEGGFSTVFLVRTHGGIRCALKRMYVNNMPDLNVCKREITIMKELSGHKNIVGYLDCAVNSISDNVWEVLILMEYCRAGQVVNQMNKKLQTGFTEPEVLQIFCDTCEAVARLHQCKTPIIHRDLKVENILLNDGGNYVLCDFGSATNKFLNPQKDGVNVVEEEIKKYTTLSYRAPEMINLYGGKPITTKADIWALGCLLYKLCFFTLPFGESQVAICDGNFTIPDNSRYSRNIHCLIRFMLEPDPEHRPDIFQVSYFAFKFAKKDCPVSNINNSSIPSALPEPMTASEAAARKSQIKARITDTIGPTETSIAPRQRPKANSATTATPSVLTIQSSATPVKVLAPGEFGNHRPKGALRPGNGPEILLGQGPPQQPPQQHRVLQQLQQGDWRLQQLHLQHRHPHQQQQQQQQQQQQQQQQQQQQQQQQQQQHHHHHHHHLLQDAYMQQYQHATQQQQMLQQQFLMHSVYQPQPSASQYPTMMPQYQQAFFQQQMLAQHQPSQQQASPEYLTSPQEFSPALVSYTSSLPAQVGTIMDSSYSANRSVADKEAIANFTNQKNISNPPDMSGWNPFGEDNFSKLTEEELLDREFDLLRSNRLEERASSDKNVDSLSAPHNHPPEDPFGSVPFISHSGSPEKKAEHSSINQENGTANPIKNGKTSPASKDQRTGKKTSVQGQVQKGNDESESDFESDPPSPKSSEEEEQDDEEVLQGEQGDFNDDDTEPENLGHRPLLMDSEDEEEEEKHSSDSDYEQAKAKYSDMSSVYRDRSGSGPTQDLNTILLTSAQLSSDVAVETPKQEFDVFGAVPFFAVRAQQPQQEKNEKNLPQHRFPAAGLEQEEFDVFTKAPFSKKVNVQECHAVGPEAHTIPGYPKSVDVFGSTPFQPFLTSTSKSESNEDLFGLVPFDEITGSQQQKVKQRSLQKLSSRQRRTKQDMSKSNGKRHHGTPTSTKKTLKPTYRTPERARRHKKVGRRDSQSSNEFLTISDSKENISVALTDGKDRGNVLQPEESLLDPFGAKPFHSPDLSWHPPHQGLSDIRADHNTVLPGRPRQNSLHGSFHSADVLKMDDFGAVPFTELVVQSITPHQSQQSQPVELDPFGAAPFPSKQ

[39] = target: TRAF2 and NCK-interacting protein kinase (Homo sapiens) (UniProt Q9UKE5); assay: TNIK DiscoveRx kinase panel; details: Compound concentration 1.0 uM
[40] = target: Peroxisome proliferator-activated receptor gamma (Homo sapiens) (UniProt P37231); assay: PPARgamma Eurofins-Panlabs radioligand binding assay; design: ligand concentration 5 nM; details: Compound concentration 10.0 uM
[41] = target: Serine/threonine-protein kinase NLK (Homo sapiens) (UniProt Q9UBE8); assay: NLK DiscoveRx kinase panel; details: Compound concentration 1.0 uM
[42] = target: Serine/threonine-protein kinase haspin (Homo sapiens) (UniProt Q8TF76); assay: HASPIN DiscoveRx kinase panel; details: Compound concentration 1.0 uM
[43] = target: Phosphatidylinositol 5-phosphate 4-kinase type-2 beta (Homo sapiens) (UniProt P78356); assay: PIP5K2B DiscoveRx kinase panel; details: Compound concentration 1.0 uM
[44] = target: 5'-AMP-activated protein kinase catalytic subunit alpha-1 (Homo sapiens) (UniProt Q13131); assay: AMPK-alpha1 DiscoveRx kinase panel; details: Compound concentration 1.0 uM
[45] = target: Tyrosine-protein kinase receptor TYRO3 (Homo sapiens) (UniProt Q06418); assay: TYRO3 DiscoveRx kinase panel; details: Compound concentration 1.0 uM
[46] = target: Homeodomain-interacting protein kinase 2 (Homo sapiens) (UniProt Q9H2X6); assay: HIPK2 DiscoveRx kinase panel; details: Compound concentration 1.0 uM

## COc1cnccc1Nc1nc(-c2nn(Cc3c(F)cc(OCCO)cc3F)c3ccccc23)ncc1OC
[1]
  residual activity: 100%
[2]
  residual activity: 97%
[3]
  residual activity: 65%
[4]
  residual activity: 83%
[5]
  residual activity: 100%
[6]
  residual activity: 100%
[7]
  residual activity: 100%
[8]
  residual activity: 82%
[9]
  residual activity: 100%
[10]
  inhibition: -1%
[11]
  residual activity: 78%
[12]
  residual activity: 86%
[13]
  residual activity: 100%
[14]
  residual activity: 97%
[15]
  inhibition: 8.89%
[16]
  residual activity: 100%
[17]
  inhibition: 4.34%
[18]
  residual activity: 99%
[19]
  residual activity: 100%
[20]
  residual activity: 100%
[21]
  residual activity: 100%
[22]
  residual activity: 100%
[23]
  residual activity: 100%
[24]
  residual activity: 100%
[25]
  residual activity: 76%
[26]
  residual activity: 100%
Rattus norvegicus
  inhibition: 0%
[27]
  residual activity: 100%
[28]
  residual activity: 98%
[29]
  residual activity: 42%
[30]
  residual activity: 100%
[31]
  residual activity: 92%
[32]
  inhibition: 9%
[33]
  inhibition: 24.9%
[34]
  residual activity: 74%
[35]
  residual activity: 96%
[36]
  inhibition: 4%
[37]
  residual activity: 79%
[38]
  residual activity: 74%
[39]
  residual activity: 100%
[40]
  inhibition: -8%
[41]
  residual activity: 88%
[42]
  residual activity: 100%
[43]
  residual activity: 91%
[44]
  residual activity: 100%
[45]
  residual activity: 56%
[46]
  residual activity: 100%
